The text below walks through data of paper PMC4078008, “Exploring metabolic engineering design principles for the photosynthetic production of lactic acid by Synechocystis sp. PCC6803” (Biotechnology for Biofuels, 2014).

One assay addresses T1, PK-F of E. coli (Escherichia coli, UniProt P0AD61).
T1 construct: gene pykF; codon-optimized gene expressed in Synechocystis sp; PCC6803 (strain SYW004); cell-free extract
The assay is described as follows: LDH-coupled PK assay in cell-free extract with and without FBP. In kind it is biochemical. The settings on record: activator; 3 mM FBP, 50 mM Tris-HCl pH 7.6, 5 mM MgCl2, 100 mM KCl, 0.6 mM ADP, 5 mM PEP, 30 °C.

The target of assay [1] is T2, L-LDH of L. lactis (LlLDH) (Lactococcus cremoris, UniProt A2RKA4).
T2 construct: full-length, codon-optimized gene expressed in Synechocystis sp; PCC6803; cell-free extract
T2 sequence (A2RKA4 1-325): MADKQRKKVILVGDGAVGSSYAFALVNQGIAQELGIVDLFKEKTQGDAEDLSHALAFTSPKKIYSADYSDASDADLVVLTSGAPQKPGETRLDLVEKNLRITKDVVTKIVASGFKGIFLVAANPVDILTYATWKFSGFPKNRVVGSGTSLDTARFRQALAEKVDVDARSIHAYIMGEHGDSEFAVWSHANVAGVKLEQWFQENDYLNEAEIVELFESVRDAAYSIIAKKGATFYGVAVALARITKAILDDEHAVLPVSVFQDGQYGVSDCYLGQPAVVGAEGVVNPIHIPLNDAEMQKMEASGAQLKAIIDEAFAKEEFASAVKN
The assay is described as follows: NAD(P)H consumption at […] nm in cell-free extract. In kind it is biochemical. As to conditions: 100 mM Tris-HCl pH 7.2, 2.5 mM MgCl2, 3 mM FBP, 300 uM NADH, 30 mM pyruvate, 30 °C.

T1 sequence (P0AD61 whole entry): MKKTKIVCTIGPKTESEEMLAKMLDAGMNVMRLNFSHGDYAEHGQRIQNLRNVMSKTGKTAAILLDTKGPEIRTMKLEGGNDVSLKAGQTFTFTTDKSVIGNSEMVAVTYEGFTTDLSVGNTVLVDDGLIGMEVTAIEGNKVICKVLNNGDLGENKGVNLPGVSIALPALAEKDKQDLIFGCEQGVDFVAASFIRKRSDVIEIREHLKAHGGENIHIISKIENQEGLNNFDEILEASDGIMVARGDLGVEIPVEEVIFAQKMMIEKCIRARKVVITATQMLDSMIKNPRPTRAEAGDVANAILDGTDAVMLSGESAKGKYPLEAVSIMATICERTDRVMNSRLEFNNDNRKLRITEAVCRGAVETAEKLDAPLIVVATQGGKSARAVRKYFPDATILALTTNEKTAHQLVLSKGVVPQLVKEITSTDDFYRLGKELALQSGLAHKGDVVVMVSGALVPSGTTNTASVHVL

For `O=P(O)(O)OC[C@H]1OC(O)(COP(=O)(O)O)[C@@H](O)[C@@H]1O` (some centres unmarked) [FBP], the “relative activity with and without FBP” value at PK-F of E. coli was “The activity assays confirmed the FBP dependency of the selected PK-F enzymes”.

Turning to `NC(=O)C1=CN([C@@H]2O[C@H](COP(=O)(O)OP(=O)(O)OC[C@H]3O[C@@H](n4cnc5c(N)ncnc54)[C@H](O)[C@@H]3O)[C@@H](O)[C@H]2O)C=CC1` [NADH], the relative activity result in assay [1] was “Both show similar activity for NADH (Figure 5C) and similar expression levels”.
